The nature of data set [1]: Effect of acid-reducing agent (famotidine) on PK of Compound 1 single agent tablet, Cohort 11. Format: in vivo, human. To be noted: for AUC(0-inf): human, in vivo, oral, fasted, N=20. The procedure: The objective of Cohort 11 was to assess the effect of gastric acid reducing agents (ARAs) on the PK of Compound 1 single agent tablet using famotidine, a representative H2RA. Compound 1 100 mg strength tablets (as free form equivalent) were used. Famotidine was obtained from a commercially available source.
Treatment J: Single dose of Compound 1 (1×100 mg tablet) administered orally in the morning in the fasted state.
Treatment K: Single dose of Compound 1 (1×100 mg tablet) administered orally in the morning 2 hours after famotidine (FAM) (1×40 mg) in the fasted state.
(§1) Study drug(s) were administered in the morning following an overnight fast (no food or drinks except water for at least 10 hours). Subjects continued to fast until after collection of the 4-hour PK sample, relative to the (first) study drug dosing. Additionally, subjects were restricted from water consumption 1 hour before until 2 hours after each study drug dosing, except for the 240 mL given with each study drug administration. Water was optionally consumed by subjects following the 2-hour blood draw for the remainder of the collection period.

Data set [2] is described as follows: Single dose PK (AUCinf) in Phase 1 studies, effect of meal type on Compound 1 exposure and variability. Type of data set: in vivo, human. As to conditions: for AUC(0-inf): human, in vivo, oral. The procedure: Part B (Adaptive Cohorts) is as follows: Based on available safety, pharmacokinetic (“PK”), and/or pharmacodynamic (“PD”) data from Part A, total daily doses for Part B (Cohorts 5 and 8) were chosen between 1 and 600 mg as well as frequency of dosing (once daily or twice a day) and meal conditions for dosing (fasted, low fat, moderate fat, or high fat meal). Once determined, dose level, frequency of dosing, and meal conditions were consistent within a cohort.
Fed State Dosing: Study drug(s) were administered at approximately the same time each day and within 5 minutes of completing a standardized meal. The meal was initiated 30 minutes prior to study drug administration. Subjects fasted until after collection of the 4-hour PK sample, relative to study drug dosing. Meal fat content (low fat, moderate fat, or high fat) was determined based on available data from […] cohorts.
(§2) Treatment A: Single dose of SEL 18 mg (1×18 mg tablet)+Compound 1 30 mg (1×30 mg tablet) coadministered orally in the morning within 5 minutes of completing a high-fat meal Treatment C: Single dose of Compound 1 30 mg (1×30 mg tablet) administered orally in the morning in the fasted state
Treatment I: Single dose of Compound 1 30 mg (1×30 mg tablet) administered orally in the morning within 5 minutes of completing a light meal
as §1, with “Fasted Administration (Treatment C): Study” for “Study”, “to” for “to the”, “may be” for “was optionally”, “period. A meal (standardized lunch) was provided to subjects after the 4 hour postdose blood draw.” for “period.”
Light Meal Administration (Treatment I): Study drug(s) were administered with food and with 240 mL of water. Following an overnight fast (no food or drinks except water for at least 10 hours), a meal was initiated 30 minutes prior to study drug administration. The dose was administered at or within 5 minutes of the subjects completing (100%) of the provided light meal containing ˜400 kcal with ˜20% of the calories from fat. Subjects fasted for 4 hours after study drug administration. A meal (standardized lunch) was provided to subjects after the 4-hour post-dose blood draw. Additionally, water and other fluids was withheld 1 hour before until 2-hours after dose administration other than the water provided with dosing and beverages provided with the standardized meal (where applicable). Water may be consumed by subjects following the 2-hour blood draw for the remainder of the collection period.
High-Fat Meal Administration (Treatment A): Study drug(s) were administered with food and with 240 mL of water. Following an overnight fast (no food or drinks except water for at least 10 hours), a meal was initiated 30 minutes prior to study drug administration. The dose was administered at or within 5 minutes of the subjects completing (100%) of the provided high-fat meal containing ˜800-1000 kcal with -50% of calories from fat (approximately 150, 250, and 500-600 kcal from protein, carbohydrate, and fat, respectively). Subjects fasted for 4 hours after study drug administration. A meal (standardized lunch) was provided to subjects after the 4-hour post-dose blood draw. Additionally, water and other fluids was withheld 1 hour before until 2 hours after dose administration other than the water provided with dosing and beverages provided with the standardized meal (where applicable). Water may be consumed by subjects following the 2-hour blood draw for the remainder of the collection period.
Cohort 10 (Compound 1 100 mg, formulation 9 in Table 3): […]

The nature of data set [3]: Single dose PK (AUCinf) in Phase 1 studies, effect of drug load on Compound 1 exposure and variability. As to conditions: for AUC(0-inf): human, in vivo, oral, fasted, healthy volunteers, read-out: Mean (% CV) Compound 1 AUCinf. Format: in vivo, human.
Excerpt: Part A: prespecified cohorts (Cohorts 1-3): Randomized, partially blind, placebo-controlled, single- and multiple-doses with staggered dose-escalations. 60 unique subjects; 15 per cohort (12 Compound 1, 3 placebo-to-match (“PTM”))
Part A (Single- and Multiple-Ascending Doses, Pre-Specified Cohorts) proceeded in 4 staggered, pre-specified, dose-escalation cohorts and were governed by study specific stopping criteria. Within each cohort, 15 unique subjects were randomized 4:1 to receive blinded Compound 1 (N=12) or PTM (N=3). All study drugs in Part A were administered in a fasted state. Within each cohort, dose escalation from single-dose (Period 1) to multiple-dose (Period 2) were permitted after evaluation of cumulative blinded safety data up to and through Day 3 of the same cohort.
Fasted State Dosing: Study drug(s) were administered at approximately the same time each day following an overnight fast (no food or drinks except water, for at least 10 hours). Subjects continued to fast until after collection of the 2-hour PK sample, relative to study drug dosing.
as §2
as §1, with “Fasted Administration (Treatment C): Study” for “Study”, “to” for “to the”, “may be” for “was optionally”, “period. A meal (standardized lunch) was provided to subjects after the 4 hour postdose blood draw.” for “period.”
Eligible subjects received the following treatment: Single dose of 100 mg Compound 1 (1×100 mg tablet), administered orally in the morning on Day 1 following an overnight fast.
Each dose of study drug was administered in the morning on Day 1 with 240 mL of still (non-carbonated) water following an overnight fast (no food or drinks except water, for at least 10 hours). Subjects continued to fast and were restricted from food intake until after collection of the 4-hour blood draw. Additionally, subjects were restricted from consumption of water or other fluids 1 hour before until 2 hours after dosing, except for the 240 mL given with the study treatment.
Cohort 10 (Compound 1 100 mg, formulation 9 in Table 3):
Treatment F: Single dose of Compound 1 (1×100 mg tablet) administered orally in the morning in the fasted state.
as §1, with “Compound 1 was” for “Study drug(s) were”, “period. A meal (standardized lunch) is provided to subjects after the 4-hour post-dose blood draw.” for “period.”
Single dose pharmacokinetic exposure parameters (AUCinf) of Compound 1 from multiple Phase 1 studies in healthy volunteers which utilized various drug loads of Compound 1 were compared to determine if Compound 1 drug load impacted the variability and/or absolute value of Compound 1 systemic exposure.

For data set [4] the following is noted: in the drug product, Form I.
[5] abbreviates: drug loads such as 5% and 8% compared to 20% drug load.

SMILES strings stand for the structures.

Regarding `O=C(O)c1ccnc(N2CC(O)(c3ccc(OCc4c(-c5c(Cl)cccc5Cl)noc4C4CC4)cc3Cl)C2)c1` [Compound 1, cilofexor], the “% GLSM Ratio (90% CI)” value in data set [1] (100 mg (12% drug load), AUCinf with famotidine vs alone) is reported as 320 (263, 390) %; in data set [2] (10 mg (5% drug load), AUCinf moderate-fat meal vs fasted) it was 74.9%; in data set [2] (30 mg (20% drug load), AUCinf high-fat meal (+ SEL 18 mg) vs fasted) it was 142%; in data set [2] (30 mg (20% drug load), AUCinf light-fat meal vs fasted), 37.5%; in data set [2] (100 mg (12% drug load), AUCinf high-fat meal vs fasted), 91.9%; in data set [2] (100 mg (12% drug load), AUCinf light-fat meal vs fasted), 65.7%. Besides, the “% GLSM Ratio (90% CI)” value in data set [2] (100 mg (20% drug load), AUCinf moderate-fat meal vs fasted) was 76.6%. Further, in data set [1] (administered two hours after famotidine, 12% drug load), the “Bioavailability of Compound 1 with famotidine pre-treatment” value is reported as “increase in bioavailability”. Also, the AUC(0-inf) in data set [1] (100 mg (12% drug load), 2 hours after famotidine 40 mg, read-out: Compound 1 AUCinf (% CV) with Famotidine (Test)) came to 13600 ng·h/mL; in data set [1] (100 mg (12% drug load), read-out: Compound 1 AUCinf (% CV) Alone (Reference)) it was 4490 ng·h/mL; in data set [2] (10 mg, 10 mg (5% drug load), fasted, N=12, read-out: Compound 1 AUCinf (% CV) Fasted) it was 1260 ng·h/mL; in data set [2] (10 mg, 10 mg (5% drug load), moderate-fat meal, N=11, read-out: Compound 1 AUCinf (% CV) Fed) it was 924 ng·h/mL; in data set [2] (30 mg (20% drug load), high-fat meal, + SEL 18 mg, N=20, read-out: Compound 1 AUCinf (% CV) Fed), 1920 ng·h/mL; in data set [2] (30 mg, 30 mg (20% drug load), fasted, N=20, read-out: Compound 1 AUCinf (% CV) Fasted), 1870 ng·h/mL. For the same compound, the AUC(0-inf) was 608 ng·h/mL in data set [2] (30 mg, 30 mg (20% drug load), light-fat meal, N=30, read-out: Compound 1 AUCinf (% CV) Fed); 7650 ng·h/mL in data set [2] (100 mg, 100 mg (12% drug load), fasted, N=20, read-out: Compound 1 AUCinf (% CV) Fasted); 5930 ng·h/mL in data set [2] (100 mg, 100 mg (12% drug load), high-fat meal, N=20, read-out: Compound 1 AUCinf (% CV) Fed); 4170 ng·h/mL in data set [2] (100 mg, 100 mg (12% drug load), light-fat meal, N=20, read-out: Compound 1 AUCinf (% CV) Fed); 7740 ng·h/mL in data set [2] (100 mg, 100 mg (20% drug load), fasted, N=12, read-out: Compound 1 AUCinf (% CV) Fasted); 5020 ng·h/mL in data set [2] (100 mg, 100 mg (20% drug load), moderate-fat meal, N=12, read-out: Compound 1 AUCinf (% CV) Fed). Further, the AUC(0-inf) came out at 2470 ng·h/mL in data set [3] (30 mg, 30 mg single dose, 5% drug load); 1870 ng·h/mL in data set [3] (30 mg, 30 mg single dose, 20% drug load); 7480 ng·h/mL in data set [3] (100 mg, 100 mg single dose, 8% drug load); 7650 ng·h/mL in data set [3] (100 mg, 100 mg single dose, 12% drug load); 7740 ng·h/mL in data set [3] (100 mg, 100 mg single dose, 20% drug load). Besides, the “Effect of food on Compound 1 exposure” value in data set [2] (high-fat meal) is “increasing”; in data set [2] (light-fat and moderate-fat meals) it was “reducing”. Moreover, the “Variability of Compound 1 exposure” value is “did not reduce variability” in data set [2] (light-fat meal); “reduced the variability” in data set [2] (moderate- and high-fat meals compared to fasted administration, irrespective of % drug load); “reduction in variability” in data set [3] (setting [5]). Besides, the “Paired comparison of Compound 1 exposure, percent change with high-fat meal” value in data set [2] (subjects with low exposure fasted or with light-fat meal vs subjects with high exposure) is “greater percent increases in exposure”. Moreover, the “Compound 1 exposure” value in data set [3] (setting [5]) is given as “increased Compound 1 exposure”.
`NC(CO)(CO)CO.O=C(O)c1ccnc(N2CC(O)(c3ccc(OCc4c(-c5c(Cl)cccc5Cl)noc4C4CC4)cc3Cl)C2)c1` [tromethamine salt of Compound 1]: the “Chemical and physical stability” value in data set [4] is “suitable chemical and physical stability”.

The values above are taken from patent US20220370366A1, “TABLETS CONTAINING CILOFEXOR AND PHARMACEUTICALLY ACCEPTABLE CARRIERS” (Gilead Sciences, Inc., priority 2019, published 2022).
